14 compounds from patent US9951081B1, “Chlorin e6 derivative and pharmaceutically acceptable salt thereof and process for preparing and use of the same” (priority 2016, dated 2018) can be followed below.

Where two headings read alike, the source gives them in different places.

Assay [1] relates to mice melanoma cell (B16-F10). Nature of the assay: In vitro darktoxicity and PDT killing effect (CCK-8), B16-F10. The class given is cell-based. The note with it: for PDT anti-cancer activity (in words): light dose of 8 J/cm^2. An excerpt:
(§1) Human non-small cell lung cancer cellA549 and mice melanoma cell B16-F10 provided by Cell bank of Shanghai in Chinese Academy of Sciences were selected as cell strains.
(§2) 660 nm semiconductor laser therapeutic equipments manufactured by Baifei biomedical company of Shanghai was selected as a laser light source, with the largest output power of 2 W.
(§3) 1) Cell strains of tumors: culture of human non-small cell lung cancer cell (A549) and mice melanoma cell (B16-F10): frozen cells were taken out of liquid nitrogen, placed in a water bath at […]. […] The medium was renewed once every two days.
(§4) 2) Preparation of reagents: compounds of the present application to be tested and positive control drug Talaporfin were dissolved in a suitable amount of 0.1 M NaOH, adjusted pH to 7.4 by 0.1 M HCl. Normal saline was added to prepare drug stock solution in a suitable concentration.
(§5) 3) Detecting darktoxicity and PDT killing effects to the two tumor cells of compounds to be tested and positive control drug: 100 μL of 5×10^3/mL cell suspension was added into each well of 96-well plate, placed in a incubator at 37° C., 5% CO2 for 24 h. after removing cell medium, fresh mediums containing different concentration of samples were added, opened with three complex holes, and incubated for 24 h at 37° C. and 5% CO2 (volume concentration). After adding fresh medium, no light irradiated (darktoxicity) or 660 nm wavelength laser was used to irradiate (light dose was 8 J/cm^2) (phototoxicity). Cells were incubated for another 24 h. Cell medium containing drugs were removed and fresh medium was added. 200 μL medium containing 10% (v/v) CCK-8 (Dojindo Laboratories, Japan) was added into each well, and incubated for 1.5 h. Microplate reader (Tecan, Switzerland) was used to measure absorbance of each well at a wavelength of 450 nm.

Assay [2] deals with human non-small cell lung cancer cell (A549). As to the kind of experiment: In vitro darktoxicity and PDT killing effect (CCK-8), A549. The following applies: for PDT anti-cancer activity (in words): light dose of 8 J/cm^2. The class given is cell-based.
Description: as §1, §2, §3, §4, §5

Where [3] appears, read: 660 nm laser, light dose 8 J/cm^2, read-out: Phototoxicity (IC50).
[4] abbreviates: no light irradiated, 24 h drug incubation, read-out: Darktoxicity (IC50).

The IC50 is the point on the concentration scale where inhibition reaches its midpoint. For `CCC1=C(C)c2cc3[nH]c(cc4nc(c(CC(=O)N[C@@H](CCC(=O)O)C(=O)O)c5[nH]c(cc1n2)c(C)c5C(=O)O)[C@@H](CCC(=O)O)[C@@H]4C)c(C)c3C(C)OCCOC` (stereo partly drawn) [I13, N-[3-[1-(2-methoxy)ethyoxyl]ethyl-3-devinylchlorine6-15^2-acyl]-L-glutamic acid], the “Ratio of Darktoxicity and Phototoxicity” value is 92.93 in assay [1] and 213.90 in assay [2]. The IC50 worked out at 1.72 µM in assay [1] (setting [3]), 160 µM in assay [1] (setting [4]), 1.25 µM in assay [2] (setting [3]) and 267 µM in assay [2] (setting [4]).
For `CCCCCCOC(C)c1c(C)c2cc3nc(c(CC(=O)N[C@@H](CC(=O)O)C(=O)O)c4[nH]c(cc5nc(cc1[nH]2)C(C)=C5CC)c(C)c4C(=O)O)[C@@H](CCC(=O)O)[C@@H]3C` (stereo partly drawn) [I3, N-[3-(1-n-hexyloxy)ethyl-3-devinylchlorine6-15^2-acyl]-L-aspartic acid], the “Ratio of Darktoxicity and Phototoxicity” value in assay [1] worked out at 215.65; in assay [2] it was 438.34. The IC50 was 0.89 µM in assay [1] (setting [3]), 192 µM in assay [1] (setting [4]), 0.65 µM in assay [2] (setting [3]) and 285 µM in assay [2] (setting [4]). Moreover, the “PDT anti-cancer activity (in words)” value in assay [1] and in assay [2] was “best” in each case. The “PDT anti-tumor activity, times that of Talaporfin” value in assay [1] (relative to Talaporfin) was found to be 12.07 times; in assay [2] (relative to Talaporfin), 13.63 times. Besides, the entries for the “ratio of darktoxicity-phototoxicity, times that of Talaporfin” value in assay [1] (relative to Talaporfin) and in assay [2] (relative to Talaporfin) were 13.64 times and 14.04 times, respectively.
As to `CCCOC(C)c1c(C)c2cc3nc(c(CC(=O)N[C@@H](CCCCN)C(=O)O)c4[nH]c(cc5nc(cc1[nH]2)C(C)=C5CC)c(C)c4C(=O)O)[C@@H](CCC(=O)O)[C@@H]3C` (stereo partly drawn) [I20, N-[3-(1-n-propoxyl)ethyl-3-devinylchlorine6-15^2-acyl]-L-lysine], the “Ratio of Darktoxicity and Phototoxicity” value was 92.87 in assay [1] and greater than 225.56 in assay [2]. Also, the 50% inhibitory concentration (IC50) is 1.75 µM in assay [1] (setting [3]), 163 µM in assay [1] (setting [4]), 1.33 µM in assay [2] (setting [3]) and greater than 300 µM in assay [2] (setting [4]).
For the compound `C=Cc1c(C)c2cc3nc(c(CC(=O)N[C@@H](CC(=O)O)C(=O)O)c4[nH]c(cc5nc(cc1[nH]2)C(C)=C5CC)c(C)c4C(=O)O)[C@@H](CCC(=O)O)[C@@H]3C` [Talaporfin, reference compound], the “Ratio of Darktoxicity and Phototoxicity” value in assay [1] is reported as 15.81; in assay [2], 31.21. The half-maximal inhibitory concentration (IC50) in assay [1] (Mus musculus, light or radiation study, 660 nm laser, light dose 8 J/cm^2, read-out: Phototoxicity (IC50)) was determined as 10.7 µM; in assay [1] (Mus musculus, light or radiation study, no light irradiated, 24 h drug incubation, read-out: Darktoxicity (IC50)), 170 µM; in assay [2] (Homo sapiens, light or radiation study, 660 nm laser, light dose 8 J/cm^2, read-out: Phototoxicity (IC50)), 8.86 µM; in assay [2] (Homo sapiens, light or radiation study, no light irradiated, 24 h drug incubation, read-out: Darktoxicity (IC50)), 277 µM.
As for `CCC1=C(C)c2cc3[nH]c(cc4nc(c(CC(=O)N[C@@H](CCC(=O)O)C(=O)O)c5[nH]c(cc1n2)c(C)c5C(=O)O)[C@@H](CCC(=O)O)[C@@H]4C)c(C)c3C(C)OCCOCCOC` (stereo partly drawn) [I17, N-[3-[1-(2-(2-methoxy)ethyoxyl)ethyoxyl]ethyl-3-devinylchlorine6-15^2-acyl]-L-glutamic acid], the entries for the “Ratio of Darktoxicity and Phototoxicity” value in assay [1] and in assay [2] were 111.04 and 240.63, respectively. The half-inhibitory concentration (IC50) in assay [1] (setting [3]) worked out at 1.52 µM; in assay [1] (setting [4]), 169 µM; in assay [2] (setting [3]), 1.1 µM; in assay [2] (setting [4]) it was 265 µM.
For the compound `CCC1=C(C)c2cc3[nH]c(cc4nc(c(CC(=O)N[C@@H](CC(=O)OC(C)(C)C)C(=O)OC(C)(C)C)c5[nH]c(cc1n2)c(C)c5C(=O)O)[C@@H](CCC(=O)O)[C@@H]4C)c(C)c3C(C)OCCOC` (stereo partly drawn) [I4, N-[3-[1-(2-methoxy)ethyoxyl]ethyl-3-devinylchlorine6-15^2-acyl]-L-aspartic acid di-tert-butyl ester], the figures for the “Ratio of Darktoxicity and Phototoxicity” value in assay [1] and in assay [2] were 113.91 and 255.18, respectively. Also, the IC50 stood at 1.61 µM in assay [1] (setting [3]), 183 µM in assay [1] (setting [4]), 1.17 µM in assay [2] (setting [3]) and 299 µM in assay [2] (setting [4]).
`CCCCCCOC(C)c1c(C)c2cc3nc(c(CC(=O)N[C@@H](CCCCN)C(=O)O)c4[nH]c(cc5nc(cc1[nH]2)C(C)=C5CC)c(C)c4C(=O)O)C(CCC(=O)O)C3C` (stereo partly drawn) [I21, N-[3-(1-n-hexyloxy)ethyl-3-devinylchlorine6-15^2-acyl]-L-lysine]: the results for the “Ratio of Darktoxicity and Phototoxicity” value in assay [1] and in assay [2] were 171.31 and 370.30, respectively. Besides, the IC50 was 1.05 µM in assay [1] (setting [3]), 180 µM in assay [1] (setting [4]), 0.79 µM in assay [2] (setting [3]) and 293 µM in assay [2] (setting [4]). Besides, the “PDT anti-cancer activity (in words)” value in assay [1] and in assay [2] was “best” in each case.
For `CCC1=C(C)c2cc3[nH]c(cc4nc(c(CC(=O)N[C@@H](CCCCN)C(=O)O)c5[nH]c(cc1n2)c(C)c5C(=O)O)[C@@H](CCC(=O)O)[C@@H]4C)c(C)c3C(C)OCCOCCOC` (stereo partly drawn) [I26, N-[3-[1-(2-(2-methoxy)ethyoxyl)ethyoxyl]ethyl-3-devinylchlorine6-15^2-acyl]-L-lysine], the “Ratio of Darktoxicity and Phototoxicity” value in assay [1] is listed as 105.20; in assay [2], 201.61. Also, the half-inhibitory concentration (IC50) is 1.67 µM in assay [1] (setting [3]), 176 µM in assay [1] (setting [4]), 1.23 µM in assay [2] (setting [3]) and 248 µM in assay [2] (setting [4]).
Turning to `CCCOC(C)c1c(C)c2cc3nc(c(CC(=O)N[C@@H](CCC(=O)O)C(=O)O)c4[nH]c(cc5nc(cc1[nH]2)C(C)=C5CC)c(C)c4C(=O)O)[C@@H](CCC(=O)O)[C@@H]3C` (stereo partly drawn) [I11, N-[3-(1-n-propoxyl)ethyl-3-devinylchlorine6-15^2-acyl]-L-glutamic acid], the half-inhibitory concentration (IC50) in assay [1] (setting [4]) stood at 173 µM; in assay [2] (setting [3]), 1.12 µM; in assay [2] (setting [4]), 278 µM.
Take `CCC1=C(C)c2cc3[nH]c(cc4nc(c(CC(=O)N[C@@H](CC(=O)O)C(=O)O)c5[nH]c(cc1n2)c(C)c5C(=O)O)C(CCC(=O)O)C4C)c(C)c3C(C)OCCCCOC` (stereo partly drawn) [I7, N-[3-[1-(4-methoxy)butoxy]ethyl-3-devinylchlorine6-15^2-acyl]-L-aspartic acid]: the “Ratio of Darktoxicity and Phototoxicity” value in assay [1] came out at 159.38; in assay [2] it was 317.88. In addition, the 50% inhibitory concentration (IC50) is 1.04 µM in assay [1] (setting [3]), 166 µM in assay [1] (setting [4]), 0.86 µM in assay [2] (setting [3]) and 273 µM in assay [2] (setting [4]).
For `CCC1=C(C)c2cc3[nH]c(cc4nc(c(CC(=O)N[C@@H](CCCCN)C(=O)O)c5[nH]c(cc1n2)c(C)c5C(=O)O)C(CCC(=O)O)C4C)c(C)c3C(C)OC` (stereo partly drawn) [I19, N^α-[3-(1-methoxy)ethyl-3-devinylchlorine6-15^2-acyl]-L-lysine], the figures for the “Ratio of Darktoxicity and Phototoxicity” value in assay [1] and in assay [2] were 84.41 and greater than 156.25, respectively. Also, the concentration for half-maximal inhibition (IC50) in assay [1] (setting [3]) is 2.28 µM; in assay [1] (setting [4]), 192 µM; in assay [2] (setting [3]) it was 1.92 µM; in assay [2] (setting [4]), greater than 300 µM.
As for `CCC1=C(C)c2cc3[nH]c(cc4nc(c(CC(=O)N[C@@H](CC(=O)O)C(=O)O)c5[nH]c(cc1n2)c(C)c5C(=O)O)C(CCC(=O)O)C4C)c(C)c3C(C)OC` (stereo partly drawn) [I1, N-[3-(1-methoxy)ethyl-3-devinylchlorine6-15^2-acyl]-L-aspartic acid], the “Ratio of Darktoxicity and Phototoxicity” value in assay [1] is on record as 102.34; in assay [2], greater than 227.27. Further, the IC50 in assay [1] (setting [3]) is 2.06 µM; in assay [1] (setting [4]), 211 µM; in assay [2] (setting [3]) it was 1.32 µM; in assay [2] (setting [4]), greater than 300 µM.
Consider `CCC1=C(C)c2cc3[nH]c(cc4nc(c(CC(=O)N[C@@H](CC(=O)O)C(=O)O)c5[nH]c(cc1n2)c(C)c5C(=O)O)[C@@H](CCC(=O)O)[C@@H]4C)c(C)c3C(C)OCCOCCOC` (stereo partly drawn) [I8, N-[3-[1-(2-(2-methoxy)ethyoxyl)ethyoxyl]ethyl-3-devinylchlorine6-15^2-acyl]-L-aspartic acid], for which the “Ratio of Darktoxicity and Phototoxicity” value in assay [1] is reported as 122.07; in assay [2] it was 283.98. Further, the IC50 was determined as 1.43 µM in assay [1] (setting [3]), 175 µM in assay [1] (setting [4]), 1.01 µM in assay [2] (setting [3]) and 287 µM in assay [2] (setting [4]).
As for `CCCCCCOC(C)c1c(C)c2cc3nc(c(CC(=O)N[C@@H](CCC(=O)O)C(=O)O)c4[nH]c(cc5nc(cc1[nH]2)C(C)=C5CC)c(C)c4C(=O)O)C(CCC(=O)O)C3C` (stereo partly drawn) [I12, N-[3-(1-n-hexyloxy)ethyl-3-devinylchlorine6-15^2-acyl]-L-glutamic acid], the “PDT anti-cancer activity (in words)” value in assay [1] and in assay [2] was “best” in each case.
